The record followed here is patent publication US20140080795A1, “NRF2 Deficiency Influences Susceptibility to Steroid Resistance via HDAC2 Reduction” (University of Rochester, priority 2010, published 2014).

In one assay the test system is KC. The assay can be described thus: LPS-induced lung inflammation in mice: KC levels in lung homogenates by ELISA. It is filed as in vivo, mouse. On the technique in general: An ELISA detects its analyte on a solid surface through an enzyme-linked reagent.
The test system of another assay is MCP-1. Nature of the assay: LPS-induced lung inflammation in mice: MCP-1 levels in lung tissue by ELISA. The class given is in vivo, mouse. Particulars: Nrf2-/- mice, budesonide 1 and 3 mg/kg pretreatment.

Method for MCP-1: Briefly, age-matched WT, Nrf2−/− and HDAC2−/− were exposed to aerosolized Escherichia coli LPS (1 mg/ml) for 8 minutes. Aerosolized saline-exposed mice were used as controls, and animals were sacrificed at 24 h post last exposure. […] Monocyte chemotactic protein 1 (MCP-1) levels were measured from mouse lung soluble protein by enzyme-linked immunosorbent assay (ELISA) with the duo-antibody kit (R & D Systems). Results were normalized to protein concentration per sample. […] Briefly, age-matched wild-type, Nrf2−/− and HDAC2−/− were exposed to aerosolized Escherichia coli LPS diluted to 1 mg/ml for 8 minutes. Aerosolized saline-exposed mice were used as controls and animals were sacrificed at 24 h post last exposure (Yao et al., Am J Respir Cell Mol Biol 39: 7-18 (2008)). […] Monocyte chemotactic protein 1 (MCP-1) levels were measured from mouse lung soluble protein by enzyme-linked immunosorbent assay (ELISA) with the MCP-1 duo-antibody kit (R & D Systems). Results were normalized to protein concentration per sample.

`CCCC1O[C@@H]2C[C@H]3[C@@H]4CCC5=CC(=O)C=C[C@]5(C)[C@H]4[C@@H](O)C[C@]3(C)[C@]2(C(=O)CO)O1` (stereo partly drawn) [budesonide]: the “KC release in lung” value in the assay on KC (HDAC2-/- mice, budesonide 3 mg/kg pretreatment) is “no significant effect”. Moreover, the “LPS-induced release of KC in lung” value in the assay with KC (Nrf2-/- mice, budesonide 1 and 3 mg/kg pretreatment) is given as “no inhibitory effect”. Also, the “LPS-induced release of MCP-1 in lung” value in the assay with MCP-1 was “no inhibitory effect”.
